US9000027B2, “Chk1 suppresses a caspase-2 apoptotic response to DNA damage that bypasses p53, bcl-2 and caspase-3” (Dana-Farber Cancer Institute, Inc., priority 2008, dated 2015)

Tests used:
p53^e7/e7 mutant embryos = experiment: Morpholino screen for suppressors of p53^e7/e7 radioresistance (live AO assay); format: in vivo, zebrafish; settings: p53^e7/e7, 12.5 Gy at 18 hpf, 7.5 hpIR
Description: We used morpholino antisense oligonucleotides (MOs) to knock down the expression levels of 8 zebrafish S- and G2-checkpoint kinases in p53^e7/e7 mutant embryos and assessed the ability of each knockdown to restore cell death (AO reactivity) at 7.5 hours post-IR (hpIR). We also tested several double-knockdown combinations, as well as knockdowns of non-kinase checkpoint regulators (p21^waf1/cip1 and smc1). For each knockdown, we scored a minimum of 50 embryos and quantified AO staining in at least 5 embryos. To avoid the isolation of false-positives, we adjusted the concentrations of each MO to the maximal dose compatible with normal embryonic development in the p53^e7/e7 background.
Morpholino oligonucleotides (MOs) synthesized by Gene Tools™ LLC, were resuspended in sterile water at a concentration of 1 mM and delivered into zebrafish embryos at the one-cell stage by microinjection. […] For each previously unpublished MO, the working concentration was determined as the highest dose compatible with normal zebrafish development in the p53^e7/e7 background (maximal subtoxic concentration). […]
Live zebrafish embryos were dechorionated in pronase (2.0 mg/mL in egg water) for 3 to 5 min and rinsed five times in egg water at 18 hpf. […] Lateral images of each zebrafish were acquired on a Zeiss Axioplan2 fluorescence microscope (5× lens), using OpenLab software and a Hammamatsu C4742-95 digital camera. […]

Chk1 = molecular target: T1, Chk1 (Homo sapiens, UniProt O14757); experiment: Western blot of Chk1 activity (Cdc2 Tyr15 and CDC25C Ser216 phosphorylation) in irradiated HeLa cells; format: cell-based; set-up: endogenous in cells; host or cells: HeLa; settings: 10 Gy
T1 sequence (O14757 1-476): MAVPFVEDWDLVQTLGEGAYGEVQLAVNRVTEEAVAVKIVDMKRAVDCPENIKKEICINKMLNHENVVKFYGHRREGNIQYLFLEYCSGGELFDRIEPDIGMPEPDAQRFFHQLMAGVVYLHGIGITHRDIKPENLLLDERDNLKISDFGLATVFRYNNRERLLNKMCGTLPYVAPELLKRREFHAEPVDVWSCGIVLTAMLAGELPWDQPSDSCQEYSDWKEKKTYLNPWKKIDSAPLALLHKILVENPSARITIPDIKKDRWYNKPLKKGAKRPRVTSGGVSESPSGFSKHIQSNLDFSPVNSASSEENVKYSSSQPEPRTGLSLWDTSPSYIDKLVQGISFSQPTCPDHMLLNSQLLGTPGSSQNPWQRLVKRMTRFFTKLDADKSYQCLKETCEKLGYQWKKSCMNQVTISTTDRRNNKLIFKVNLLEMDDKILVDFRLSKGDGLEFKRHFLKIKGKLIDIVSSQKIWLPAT
Description: Protein extract (5-60 μg) was added to 4× gel loading buffer and 10× denaturing solution (Invitrogen) in appropriate proportions, and samples were incubated at 70° C. for 10 min. Samples were run at 200V for 1 hr on a 4-12% Bis-tris gradient gel (Invitrogen). After electrophoresis, samples were transferred for 1.5 hr (350 mA) to a Nitrocellulose membrane (Millipore) using a submerged transfer apparatus (Bio-Rad). Membranes were then blocked with 5% milk in Tris-buffered saline with 0.1% tween (TBST) and probed overnight at 4° C. with the following antibodies: anti-zebrafish Chk1 (diluted 1:200), anti-zebrafish Chk2 (1:200), anti-P-Cdc2 (1:1000), anti-actin (1:2000), anti-human ATR (1:500) and Stressgen anti-human-caspase-3 (1:500) for zebrafish immunoblots; and anti-caspase-2 (1:200), Upstate anti-caspase-3 (1:500), anti-P-ATM (1:500), anti-ATM (1:500), Santa Cruz anti-human Chk1 (1:1000), Santa Cruz anti-human Chk2 (1:1000), anti-P-Chk1 (1:500), anti-P-Chk2 (1:500), anti-P-H2A.X (1:2000), anti-P-cdc25C (1:1000), anti-P-HSP27 (1:1000), anti-HSP27 (1:1000), anti-P-Cdc2 (1:1000), anti-p53 (1:1000) and anti-GAPDH (1:5000) for immunoblots of human tumor cell lysates. Detailed references for all primary antibodies can be found in the ‘Antibodies’ section elsewhere herein.

chk1 MO: morpholino against zebrafish chk1 atg/5'UTR, aggcacagccattatgcaatcttcg (SEQ ID NO: 11) (AGGCACAGCCATTATGCAATCTTCG; all phosphorodiamidate morpholino (PMO))
AO reactivity restored, of the p53+/+ response (p53^e7/e7 mutant embryos): 87.7%

Cn1c2ccccc2c2c3c(c4c5ccccc5n(CCC#N)c4c21)CNC3=O [Gö6976]
Chk1 inhibition (Chk1; 1 μM): potent Chk1 inhibition | phosphorylation of Chk1 readouts CDC2 and CDC25C (Chk1; increasing concentrations, 24 hpIR): inhibited the phosphorylation of CDC2 and CDC25C
